{"source": "the supplement of paper PMC10307832", "experiment_in_all_cases": "relative viability (nuclei count vs DMSO), 5 days (fraction); higher = more cells survive", "key": {"CAL-12T": {"tested_on": "CAL-12T", "summary_of_the_method": "(§1)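 Five library-drug doses in √10 steps were combined with a fixed anchor-drug dose, or a single drug was given alone, by pin tool to lung cancer cell lines in 1536-well plates the day after seeding. Nuclei were stained and counted after 5 days. Relative viability is the nuclei count in treated wells over that in vehicle wells, taken as the median of duplicate plates.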"}, "EKVX": {"tested_on": "EKVX", "summary_of_the_method": "as §1"}, "H3255": {"tested_on": "H3255", "summary_of_the_method": "as §1"}, "HCC-15": {"tested_on": "HCC-15", "summary_of_the_method": "as §1"}, "HCC-827": {"tested_on": "HCC-827", "summary_of_the_method": "as §1"}, "LCLC-97TM1": {"tested_on": "LCLC-97TM1", "summary_of_the_method": "as §1"}, "LK-2": {"tested_on": "LK-2", "summary_of_the_method": "as §1"}, "NCI-H1355": {"tested_on": "NCI-H1355", "summary_of_the_method": "as §1"}, "NCI-H1734": {"tested_on": "NCI-H1734", "summary_of_the_method": "as §1"}, "NCI-H1755": {"tested_on": "NCI-H1755", "summary_of_the_method": "as §1"}, "NCI-H1975": {"tested_on": "NCI-H1975", "summary_of_the_method": "as §1"}, "NCI-H2342": {"tested_on": "NCI-H2342", "summary_of_the_method": "as §1"}, "NCI-H2405": {"tested_on": "NCI-H2405", "summary_of_the_method": "as §1"}, "NCI-H322M": {"tested_on": "NCI-H322M", "summary_of_the_method": "as §1"}, "PC-14": {"tested_on": "PC-14", "summary_of_the_method": "as §1"}, "PC-3 [JPC-3]": {"tested_on": "PC-3 [JPC-3]", "summary_of_the_method": "as §1"}, "RERF-LC-KJ": {"tested_on": "RERF-LC-KJ", "summary_of_the_method": "as §1"}}}
{"smiles": "O=c1cc(-c2cccc3c2Sc2ccccc2S3)oc(N2CCOCC2)c1", "note": "+ NC(=O)Nc1cc(-c2cccc(F)c2)sc1C(=O)N[C@H]1CCCNC1 [AZD7762] (partner 0.2 µM)", "values": [{"measurement": "relative viability", "setting": "CAL-12T; first compound 0.08 µM", "value": 0.585}, {"measurement": "relative viability", "setting": "CAL-12T; first compound 0.253 µM", "value": 0.555}, {"measurement": "relative viability", "setting": "CAL-12T; first compound 0.8 µM", "value": 0.601}, {"measurement": "relative viability", "setting": "CAL-12T; first compound 2.53 µM", "value": 0.626}, {"measurement": "relative viability", "setting": "CAL-12T; first compound 8 µM", "value": 0.642}, {"measurement": "relative viability", "setting": "EKVX; first compound 0.08 µM", "value": 0.67}, {"measurement": "relative viability", "setting": "EKVX; first compound 0.253 µM", "value": 0.709}, {"measurement": "relative viability", "setting": "EKVX; first compound 0.8 µM", "value": 0.74}, {"measurement": "relative viability", "setting": "EKVX; first compound 2.53 µM", "value": 0.669}, {"measurement": "relative viability", "setting": "EKVX; first compound 8 µM", "value": 0.717}, {"measurement": "relative viability", "setting": "H3255; first compound 0.08 µM", "value": 0.878}, {"measurement": "relative viability", "setting": "H3255; first compound 0.253 µM", "value": 0.996}, {"measurement": "relative viability", "setting": "H3255; first compound 0.8 µM", "value": 0.758}, {"measurement": "relative viability", "setting": "H3255; first compound 2.53 µM", "value": 0.882}, {"measurement": "relative viability", "setting": "H3255; first compound 8 µM", "value": 0.901}, {"measurement": "relative viability", "setting": "HCC-15; first compound 0.08 µM", "value": 1.22}, {"measurement": "relative viability", "setting": "HCC-15; first compound 0.253 µM", "value": 1.51}, {"measurement": "relative viability", "setting": "HCC-15; first compound 0.8 µM", "value": 1.18}, {"measurement": "relative viability", "setting": "HCC-15; first compound 2.53 µM", "value": 1.18}, {"measurement": "relative viability", "setting": "HCC-15; first compound 8 µM", "value": 1.28}, {"measurement": "relative viability", "setting": "HCC-827; first compound 0.08 µM", "value": 0.199}, {"measurement": "relative viability", "setting": "HCC-827; first compound 0.253 µM", "value": 0.196}, {"measurement": "relative viability", "setting": "HCC-827; first compound 0.8 µM", "value": 0.165}, {"measurement": "relative viability", "setting": "HCC-827; first compound 2.53 µM", "value": 0.122}, {"measurement": "relative viability", "setting": "HCC-827; first compound 8 µM", "value": 0.188}, {"measurement": "relative viability", "setting": "LCLC-97TM1; first compound 0.08 µM", "value": 0.303}, {"measurement": "relative viability", "setting": "LCLC-97TM1; first compound 0.253 µM", "value": 0.191}, {"measurement": "relative viability", "setting": "LCLC-97TM1; first compound 0.8 µM", "value": 0.265}, {"measurement": "relative viability", "setting": "LCLC-97TM1; first compound 2.53 µM", "value": 0.114}, {"measurement": "relative viability", "setting": "LCLC-97TM1; first compound 8 µM", "value": 0.345}, {"measurement": "relative viability", "setting": "LK-2; first compound 0.08 µM", "value": 0.468}, {"measurement": "relative viability", "setting": "LK-2; first compound 0.253 µM", "value": 0.331}, {"measurement": "relative viability", "setting": "LK-2; first compound 0.8 µM", "value": 0.374}, {"measurement": "relative viability", "setting": "LK-2; first compound 2.53 µM", "value": 0.219}, {"measurement": "relative viability", "setting": "LK-2; first compound 8 µM", "value": 0.458}, {"measurement": "relative viability", "setting": "NCI-H1355; first compound 0.08 µM", "value": 0.703}, {"measurement": "relative viability", "setting": "NCI-H1355; first compound 0.253 µM", "value": 0.915}, {"measurement": "relative viability", "setting": "NCI-H1355; first compound 0.8 µM", "value": 0.743}, {"measurement": "relative viability", "setting": "NCI-H1355; first compound 2.53 µM", "value": 0.554}, {"measurement": "relative viability", "setting": "NCI-H1355; first compound 8 µM", "value": 0.756}, {"measurement": "relative viability", "setting": "NCI-H1734; first compound 0.08 µM", "value": 0.512}, {"measurement": "relative viability", "setting": "NCI-H1734; first compound 0.253 µM", "value": 0.541}, {"measurement": "relative viability", "setting": "NCI-H1734; first compound 0.8 µM", "value": 0.581}, {"measurement": "relative viability", "setting": "NCI-H1734; first compound 8 µM", "value": 0.63}, {"measurement": "relative viability", "setting": "NCI-H1755; first compound 0.08 µM", "value": 0.535}, {"measurement": "relative viability", "setting": "NCI-H1755; first compound 0.253 µM", "value": 0.453}, {"measurement": "relative viability", "setting": "NCI-H1755; first compound 0.8 µM", "value": 0.439}, {"measurement": "relative viability", "setting": "NCI-H1755; first compound 2.53 µM", "value": 0.566}, {"measurement": "relative viability", "setting": "NCI-H1755; first compound 8 µM", "value": 0.418}, {"measurement": "relative viability", "setting": "NCI-H1975; first compound 0.08 µM", "value": 0.601}, {"measurement": "relative viability", "setting": "NCI-H1975; first compound 0.253 µM", "value": 0.733}, {"measurement": "relative viability", "setting": "NCI-H1975; first compound 0.8 µM", "value": 0.502}, {"measurement": "relative viability", "setting": "NCI-H1975; first compound 2.53 µM", "value": 0.631}, {"measurement": "relative viability", "setting": "NCI-H1975; first compound 8 µM", "value": 0.678}, {"measurement": "relative viability", "setting": "NCI-H2342; first compound 0.08 µM", "value": 0.415}, {"measurement": "relative viability", "setting": "NCI-H2342; first compound 0.253 µM", "value": 0.466}, {"measurement": "relative viability", "setting": "NCI-H2342; first compound 0.8 µM", "value": 0.545}, {"measurement": "relative viability", "setting": "NCI-H2342; first compound 2.53 µM", "value": 0.529}, {"measurement": "relative viability", "setting": "NCI-H2342; first compound 8 µM", "value": 0.541}, {"measurement": "relative viability", "setting": "NCI-H2405; first compound 0.08 µM", "value": 0.691}, {"measurement": "relative viability", "setting": "NCI-H2405; first compound 0.253 µM", "value": 0.808}, {"measurement": "relative viability", "setting": "NCI-H2405; first compound 0.8 µM", "value": 0.731}, {"measurement": "relative viability", "setting": "NCI-H2405; first compound 2.53 µM", "value": 0.64}, {"measurement": "relative viability", "setting": "NCI-H2405; first compound 8 µM", "value": 0.661}, {"measurement": "relative viability", "setting": "NCI-H322M; first compound 0.08 µM", "value": 0.665}, {"measurement": "relative viability", "setting": "NCI-H322M; first compound 0.253 µM", "value": 0.537}, {"measurement": "relative viability", "setting": "NCI-H322M; first compound 0.8 µM", "value": 0.51}, {"measurement": "relative viability", "setting": "NCI-H322M; first compound 2.53 µM", "value": 0.429}, {"measurement": "relative viability", "setting": "NCI-H322M; first compound 8 µM", "value": 0.534}, {"measurement": "relative viability", "setting": "PC-14; first compound 0.08 µM", "value": 0.338}, {"measurement": "relative viability", "setting": "PC-14; first compound 0.253 µM", "value": 0.45}, {"measurement": "relative viability", "setting": "PC-14; first compound 0.8 µM", "value": 0.264}, {"measurement": "relative viability", "setting": "PC-14; first compound 2.53 µM", "value": 0.263}, {"measurement": "relative viability", "setting": "PC-14; first compound 8 µM", "value": 0.381}, {"measurement": "relative viability", "setting": "PC-3 [JPC-3]; first compound 0.08 µM", "value": 0.721}, {"measurement": "relative viability", "setting": "PC-3 [JPC-3]; first compound 0.253 µM", "value": 0.745}, {"measurement": "relative viability", "setting": "PC-3 [JPC-3]; first compound 0.8 µM", "value": 0.758}, {"measurement": "relative viability", "setting": "PC-3 [JPC-3]; first compound 2.53 µM", "value": 0.766}, {"measurement": "relative viability", "setting": "PC-3 [JPC-3]; first compound 8 µM", "value": 0.728}, {"measurement": "relative viability", "setting": "RERF-LC-KJ; first compound 0.08 µM", "value": 0.913}, {"measurement": "relative viability", "setting": "RERF-LC-KJ; first compound 0.253 µM", "value": 1.05}, {"measurement": "relative viability", "setting": "RERF-LC-KJ; first compound 0.8 µM", "value": 0.846}, {"measurement": "relative viability", "setting": "RERF-LC-KJ; first compound 2.53 µM", "value": 0.977}, {"measurement": "relative viability", "setting": "RERF-LC-KJ; first compound 8 µM", "value": 1.02}]}
